The text below walks through data of patent publication US20230339981A1, “KRAS G12D MODULATING COMPOUNDS” (priority 2022, published 2023).

The structures appear in SMILES notation.

Broadly, the IC50 is the point on the concentration scale where inhibition reaches its midpoint. A lower IC50 goes with inhibition by little substance. For orientation: EC50 means the concentration that produces a half-maximal response. Low readings indicate higher potency in that assay, high ones lower potency in that assay.

Test [1] concerns the target GDP-loaded KRAS G12D (Homo sapiens (Human), UniProt P01116, G12D). Put plainly: KRAS G12D (GDP) biochemical assay (TR-FRET probe displacement). Type of test: binding. The conditions noted are these: 2 hours. In short, it runs like this:
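Compound pre-incubated 30 min with GDP-loaded KRAS G12D in 50 mM Hepes pH 7.4, 150 mM NaCl, 5 mM MgCl2, 0.005% Tween-20, then Eu-streptavidin and TR-FRET probe added. After 2 h at room temperature, TR-FRET ratio read; IC50 is 50% ratio decrease, sigmoidal fit.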

Test [2] has as its system GP2D (KRAS G12D) cells. Put plainly: 2D cell viability assay (CellTiter-Glo). The conditions noted are these: GP2d, 96 h, 4 days. Type of test: cell-based. In short, it runs like this: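 GP2D (KRAS G12D) cells, 1000/well in RPMI + 10% FBS, were plated onto compound (1:3 DMSO series) and grown 4 days at 37 °C, 5% CO2 in 2D. CellTiter-Glo luminescence was read; EC50 is the concentration giving 50% signal decrease, from sigmoidal fit.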
On the technique in general: ATP-based viability assays read luminescence as a measure of living cells.

The test system of test [3] is AsPC-1 (KRAS G12D) cells. Put plainly: 3D cell viability assay (spheroids, CellTiter-Glo 3D). The settings on record: Homo sapiens, ASPC1, 96 h, AsPC-1 cells, 3D spheroids, 4 days. Type of test: cell-based. In short, it runs like this: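 AsPC-1 cells (1000/well) in DMEM with 10% FBS formed spheroids over 3 days at 37 °C in ultra-low attachment plates, then were treated with 1:3 serial dilutions for 4 days. Viability read by CellTiter-Glo 3D luminescence; EC50 as concentration giving 50% signal decrease, sigmoidal fit.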

Chain of GDP-loaded KRAS G12D (P01116-2 other isoform, or with tags, fused parts or gaps G12D): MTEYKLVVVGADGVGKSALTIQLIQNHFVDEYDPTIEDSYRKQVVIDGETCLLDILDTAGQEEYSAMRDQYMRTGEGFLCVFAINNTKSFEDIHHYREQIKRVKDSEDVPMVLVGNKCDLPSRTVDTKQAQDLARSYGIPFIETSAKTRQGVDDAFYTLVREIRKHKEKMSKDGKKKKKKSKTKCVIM

Regarding `C#Cc1c(F)ccc2cc(O)cc(-c3nc4c5c(nc(OCC6(CN7CCC8(CC7)CC8(F)F)CC6)nc5c3F)N3C[C@H]5CC[C@H](N5)[C@H]3CC4)c12` [Example 185, 4-((5aR,6S,9R)-12-((1-((1,1-difluoro-6-azaspiro[2.5]octan-6-yl)methyl)cyclopropyl)methoxy)-1-fluoro-4,5,5a,6,7,8,9,10-octahydro-3,10a,11,13,14-pentaaza[6,9]methanonaphtho[1,8-ab]heptalen-2-yl)-5-ethynyl-6-fluoronaphthalen-2-ol], the half-maximal inhibitory concentration (IC50) in test [1] was 0.4 nM. Further, the EC50 in test [2] amounted to 2.7 nM; in test [3], 23.1 nM.

As for `C#Cc1c(F)ccc2cc(O)cc(-c3nc4c5c(nc(OC[C@@]67CCCN6C[C@H](F)C7)nc5c3F)N3C[C@H]5CC[C@H](N5)[C@H]3CCCC4)c12` [Example 189, 5-ethynyl-6-fluoro-4-((7aR,8S,11R)-1-fluoro-14-(((2R,7aS)-2-fluorotetrahydro-1H-pyrrolizin-7a(5H)-yl)methoxy)-4,5,6,7,7a,8,9,10,11,12-decahydro-3,12a,13,15,16-pentaaza-8,11-methanocyclohepta[4,5]cyclonona[1,2,3-de]naphthalen-2-yl)naphthalen-2-ol], the IC50 in test [1] amounted to 0.1 nM. The EC50 in test [2] turned out to be 0.6 nM; in test [3], 2.9 nM.

Compound `C#Cc1c(F)ccc2cc(O)cc(-c3nc4c5c(nc(OC[C@@]67CCCN6C[C@H](F)C7)nc5c3F)N3C[C@@]5(C)CC[C@H](N5)[C@H]3CC4)c12` [Example 190, 5-ethynyl-6-fluoro-4-((5aR,6S,9R)-1-fluoro-12-(((2R,7aS)-2-fluorotetrahydro-1H-pyrrolizin-7a(5H)-yl)methoxy)-9-methyl-4,5,5a,6,7,8,9,10-octahydro-3,10a,11,13,14-pentaaza-6,9-methanonaphtho[1,8-ab]heptalen-2-yl)naphthalen-2-ol] yielded a concentration for half-maximal inhibition (IC50) in test [1] of 0.1 nM. Further, the results for the half-maximal effective concentration (EC50) in test [2] and in test [3] were 1.5 nM and 7.9 nM, respectively.

In test [1], `C#Cc1c(F)ccc2cccc(-c3nc4c5c(nc(OC[C@@]67CCCN6C[C@H](F)C7)nc5c3F)N3C[C@@]5(C)CC[C@H](N5)[C@H]3CC4)c12` [Example 191, (5aR,6S,9R)-2-(8-ethynyl-7-fluoronaphthalen-1-yl)-1-fluoro-12-(((2R,7aS)-2-fluorotetrahydro-1H-pyrrolizin-7a(5H)-yl)methoxy)-9-methyl-4,5,5a,6,7,8,9,10-octahydro-3,10a,11,13,14-pentaaza-6,9-methanonaphtho[1,8-ab]heptalene] showed a half-inhibitory concentration (IC50) of 2 nM. In addition, the EC50 in test [2] was found to be 39.8 nM; in test [3], 110 nM.
